The target of this assay is T1, Nav 1.7 (Homo sapiens, UniProt Q15858).
T1 construct: expressed in transfected cells
T1 sequence (Q15858 whole entry): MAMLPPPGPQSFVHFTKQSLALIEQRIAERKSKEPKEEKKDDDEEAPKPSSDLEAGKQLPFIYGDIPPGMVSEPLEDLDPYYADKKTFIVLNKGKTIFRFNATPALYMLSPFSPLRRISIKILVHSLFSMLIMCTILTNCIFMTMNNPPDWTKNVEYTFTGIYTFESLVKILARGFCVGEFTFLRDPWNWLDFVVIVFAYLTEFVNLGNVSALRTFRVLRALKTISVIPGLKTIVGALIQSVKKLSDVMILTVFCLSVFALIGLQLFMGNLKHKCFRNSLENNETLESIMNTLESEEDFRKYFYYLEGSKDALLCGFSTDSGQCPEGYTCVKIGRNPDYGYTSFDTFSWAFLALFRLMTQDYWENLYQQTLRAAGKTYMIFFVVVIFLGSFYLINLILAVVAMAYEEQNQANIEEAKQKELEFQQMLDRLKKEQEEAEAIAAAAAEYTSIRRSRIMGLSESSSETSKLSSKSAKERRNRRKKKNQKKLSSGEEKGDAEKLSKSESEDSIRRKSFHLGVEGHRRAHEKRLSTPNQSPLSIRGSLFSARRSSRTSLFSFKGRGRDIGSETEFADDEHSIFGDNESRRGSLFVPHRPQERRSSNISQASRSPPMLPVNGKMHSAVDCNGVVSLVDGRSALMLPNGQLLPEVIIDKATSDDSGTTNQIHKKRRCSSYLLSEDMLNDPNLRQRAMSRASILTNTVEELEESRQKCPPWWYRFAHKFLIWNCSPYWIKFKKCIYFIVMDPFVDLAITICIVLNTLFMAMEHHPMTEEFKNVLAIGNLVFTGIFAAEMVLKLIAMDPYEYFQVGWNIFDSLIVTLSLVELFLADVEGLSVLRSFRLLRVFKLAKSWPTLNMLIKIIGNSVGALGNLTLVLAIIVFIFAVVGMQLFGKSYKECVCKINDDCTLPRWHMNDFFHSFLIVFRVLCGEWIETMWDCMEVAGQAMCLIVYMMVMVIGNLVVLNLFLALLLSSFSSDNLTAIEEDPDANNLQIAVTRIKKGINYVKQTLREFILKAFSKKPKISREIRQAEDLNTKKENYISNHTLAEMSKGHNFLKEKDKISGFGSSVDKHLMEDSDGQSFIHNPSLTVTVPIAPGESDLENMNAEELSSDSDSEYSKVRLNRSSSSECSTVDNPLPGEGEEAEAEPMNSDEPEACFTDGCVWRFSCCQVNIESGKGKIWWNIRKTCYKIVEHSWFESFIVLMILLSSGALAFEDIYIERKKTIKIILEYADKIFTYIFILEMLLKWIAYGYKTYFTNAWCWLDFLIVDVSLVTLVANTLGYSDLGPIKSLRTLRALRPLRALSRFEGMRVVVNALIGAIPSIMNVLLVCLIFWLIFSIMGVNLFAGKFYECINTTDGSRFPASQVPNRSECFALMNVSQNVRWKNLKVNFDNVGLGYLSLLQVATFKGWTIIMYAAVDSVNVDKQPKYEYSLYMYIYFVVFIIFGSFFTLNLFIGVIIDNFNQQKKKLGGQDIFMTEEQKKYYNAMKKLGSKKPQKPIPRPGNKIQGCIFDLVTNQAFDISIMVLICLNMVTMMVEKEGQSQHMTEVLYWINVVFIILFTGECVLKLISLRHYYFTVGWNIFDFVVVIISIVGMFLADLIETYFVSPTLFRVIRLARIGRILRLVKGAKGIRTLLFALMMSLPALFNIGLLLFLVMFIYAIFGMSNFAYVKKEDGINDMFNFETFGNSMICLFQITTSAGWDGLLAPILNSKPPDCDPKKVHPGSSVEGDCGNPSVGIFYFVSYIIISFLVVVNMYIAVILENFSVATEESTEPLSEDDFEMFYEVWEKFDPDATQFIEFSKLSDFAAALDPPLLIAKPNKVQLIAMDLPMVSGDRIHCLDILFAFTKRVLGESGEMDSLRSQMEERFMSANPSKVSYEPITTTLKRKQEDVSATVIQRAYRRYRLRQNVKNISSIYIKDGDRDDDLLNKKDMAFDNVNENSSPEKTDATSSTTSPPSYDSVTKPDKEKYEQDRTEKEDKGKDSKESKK
Kind of assay: Whole-cell voltage clamp electrophysiology, automated patch clamp (marker c in Table of Examples). The class given is cell-based. The settings on record: marker c = Automated patch clamp data; read-out: Nav 1.7 activity. In a few lines:
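Human NaV1.7 currents were recorded by whole-cell automated patch clamp, on IonWorks Quattro or another automated platform, typically in perforated-patch configuration. The stimulus protocol was designed to probe block mainly of the inactivated state, with a typical sweep stepping from about −65 mV holding to −10 mV, then −100 mV.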
On the technique in general: Patch clamp records ionic current or voltage across a cell membrane.
`CN(c1ccccc1)c1nc(N)nc(-c2noc(-c3ccc(N4CCCCC4)nc3)n2)n1` [Example 473, 2-N-methyl-2-N-phenyl-6-{5-[6-(piperidin-1-yl)pyridin-3-yl]-1,2,4-oxadiazol-3-yl}-1,3,5-triazine-2,4-diamine]: the IC50 was 310 nM.

On to `CN(c1ccc(F)cc1)c1nc(N)nc(-c2noc(-c3ncccc3F)n2)n1` [Example 474, 2-N-(4-fluorophenyl)-6-[5-(3-fluoropyridin-2-yl)-1,2,4-oxadiazol-3-yl]-2-N-methyl-1,3,5-triazine-2,4-diamine], for which the IC50 worked out at 289 nM. With `CN(c1nc(N)nc(-c2noc(-c3ncccc3F)n2)n1)c1ccccc1F` [Example 475, 2-N-(2-fluorophenyl)-6-[5-(3-fluoropyridin-2-yl)-1,2,4-oxadiazol-3-yl]-2-N-methyl-1,3,5-triazine-2,4-diamine], the IC50 came to 69 nM. The figure for `CN(c1cccc(F)c1)c1nc(N)nc(-c2noc(-c3ncccc3F)n2)n1` [Example 476, 2-N-(3-fluorophenyl)-6-[5-(3-fluoropyridin-2-yl)-1,2,4-oxadiazol-3-yl]-2-N-methyl-1,3,5-triazine-2,4-diamine] is 366 nM; for `CN(C)C(=O)c1ccc(-c2nc(-c3nc(N)nc(N(C)c4ccccc4)n3)no2)cn1` [Example 478, 5-{3-[4-Amino-6-(methyl-phenyl-amino)-[1,3,5]triazin-2-yl]-[1,2,4]oxadiazol-5-yl}-pyridine-2-carboxylic acid dimethylamide] it is 8810 nM; for `CN(c1ccccc1)c1nc(N)nc(-c2noc(-c3cccnn3)n2)n1` [Example 479, 2-N-methyl-2-N-phenyl-6-[5-(pyridazin-3-yl)-1,2,4-oxadiazol-3-yl]-1,3,5-triazine-2,4-diamine] it is 1140 nM. In the case of `CCOc1cccnc1-c1nc(-c2nc(N)nc(N(C)c3ccccc3)n2)no1` [Example 480, 6-[5-(3-ethoxypyridin-2-yl)-1,2,4-oxadiazol-3-yl]-2-N-methyl-2-N-phenyl-1,3,5-triazine-2,4-diamine], the IC50 came to 313 nM.

As for `CN(c1ccccc1)c1nc(N)nc(-c2noc(-c3ncccc3NC3CC3)n2)n1` [Example 481, 6-{5-[3-(Cyclopropylamino)pyridin-2-yl]-1,2,4-oxadiazol-3-yl}-2-N-methyl-2-N-phenyl-1,3,5-triazine-2,4-diamine], the IC50 was 1900 nM.

As to `CN(c1ccccc1)c1nc(N)nc(-c2noc(-c3ncccc3F)n2)n1` [Example 482, 6-[5-(3-Fluoropyridin-2-yl)-[1,2,4]oxadiazol-3-yl]-N-methyl-N-phenyl-[1,3,5]triazine-2,4-diamine], the IC50 worked out at 647 nM. With `COCCOc1cccnc1-c1nc(-c2nc(N)nc(N(C)c3ccccc3)n2)no1` [Example 483, 6-{5-[3-(2-methoxyethoxy)pyridin-2-yl]-1,2,4-oxadiazol-3-yl}-2-N-methyl-2-N-phenyl-1,3,5-triazine-2,4-diamine], the IC50 was 2400 nM.

Turning to `CC(C)Oc1cccnc1-c1nc(-c2nc(N)nc(N(C)c3ccccc3)n2)no1` [Example 484, 2-N-methyl-2-N-phenyl-6-{5-[3-(propan-2-yloxy)pyridin-2-yl]-1,2,4-oxadiazol-3-yl}-1,3,5-triazine-2,4-diamine], the IC50 was 695 nM. The figure for `CN(c1ccccc1)c1nc(N)nc(-c2noc(-c3ncccc3OCC(F)(F)F)n2)n1` [Example 486, 2-N-methyl-2-N-phenyl-6-{5-[3-(2,2,2-trifluoroethoxy)pyridin-2-yl]-1,2,4-oxadiazol-3-yl}-1,3,5-triazine-2,4-diamine] is 1220 nM; for `CN(c1ccccc1)c1nc(N)nc(-c2noc(-c3ncccc3NCC3CC3)n2)n1` [Example 487, 6-{5-[3-(Cyclopropylmethylamino)-pyridin-2-yl]-[1,2,4]oxadiazol-3-yl}-N-methyl-N-phenyl-[1,3,5]triazine-2,4-diamine] it is over 6590 nM. The result for `CN(c1ccccc1)c1nc(N)nc(-c2noc(-c3ncccc3NC3CCC3)n2)n1` [Example 488, 6-{5-[3-(cyclobutylamino)pyridin-2-yl]-1,2,4-oxadiazol-3-yl}-2-N-methyl-2-N-phenyl-1,3,5-triazine-2,4-diamine] reads 838 nM; that for `CN(c1ccccc1)c1nc(N)nc(-c2noc(-c3ncccc3N3CCOCC3)n2)n1` [Example 490, 2-N-methyl-6-{5-[3-(morpholin-4-yl)pyridin-2-yl]-1,2,4-oxadiazol-3-yl}-2-N-phenyl-1,3,5-triazine-2,4-diamine], 464 nM; that for `CN(c1ccccc1)c1nc(N)nc(-c2noc(-c3ncccc3OC3CCC3)n2)n1` [Example 491, 6-[5-(3-cyclobutoxypyridin-2-yl)-1,2,4-oxadiazol-3-yl]-2-N-methyl-2-N-phenyl-1,3,5-triazine-2,4-diamine], 1040 nM.

For the compound `CC(C)OC1CN(c2nc(-c3nc(N)nc(N(C)c4ccccc4)n3)no2)C1` [Example 492, 6-[5-(3-Isopropoxyazetidin-1-yl)-[1,2,4]oxadiazol-3-yl]-N-methyl-N-phenyl-[1,3,5]triazine-2,4-diamine], the IC50 was over 8080 nM. In the case of `COC1CN(c2nc(-c3nc(N)nc(N(C)c4ccccc4)n3)no2)C1` [Example 493, 6-[5-(3-methoxyazetidin-1-yl)-1,2,4-oxadiazol-3-yl]-2-N-methyl-2-N-phenyl-1,3,5-triazine-2,4-diamine], the IC50 is over 9350 nM. The figure for `CN(c1ccccc1)c1nc(N)nc(-c2noc(N3CC(OCC(F)(F)F)C3)n2)n1` [Example 494, 2-N-methyl-2-N-phenyl-6-{5-[3-(2,2,2-trifluoroethoxy)azetidin-1-yl]-1,2,4-oxadiazol-3-yl}-1,3,5-triazine-2,4-diamine] is 1980 nM; for `CN(c1ccccc1)c1nc(N)nc(-c2noc(N3CC(COc4ccccc4)C3)n2)n1` [Example 495, N-Methyl-6-[5-(3-phenoxymethylazetidin-1-yl)-[1,2,4]oxadiazol-3-yl]-N-phenyl-[1,3,5]triazine-2,4-diamine] it is 1910 nM; for `CN(c1ccccc1)c1nc(N)nc(-c2noc(N3CC(COCCC(F)(F)F)C3)n2)n1` [Example 496, 2-N-methyl-2-N-phenyl-6-(5-{3-[(3,3,3-trifluoropropoxy)methyl]azetidin-1-yl}-1,2,4-oxadiazol-3-yl)-1,3,5-triazine-2,4-diamine] it is 1220 nM. The figure for `CN(c1ccccc1)c1nc(N)nc(-c2noc(-c3ccc(COCC(F)(F)F)o3)n2)n1` [Example 497, 2-N-methyl-2-N-phenyl-6-(5-{5-[(2,2,2-trifluoroethoxy)methyl]furan-2-yl}-1,2,4-oxadiazol-3-yl)-1,3,5-triazine-2,4-diamine] is 473 nM; for `CN(c1ccccc1)c1nc(N)nc(-c2noc(N3CC(OCC4CC4)C3)n2)n1` [Example 498, 6-{5-[3-(cyclopropylmethoxy)azetidin-1-yl]-1,2,4-oxadiazol-3-yl}-2-N-methyl-2-N-phenyl-1,3,5-triazine-2,4-diamine] it is 902 nM.

In the case of `CN(c1ccccc1)c1nc(N)nc(-c2noc(N3CC(Oc4ccccn4)C3)n2)n1` [Example 499, 2-N-methyl-2-N-phenyl-6-{5-[3-(pyridin-2-yloxy)azetidin-1-yl]-1,2,4-oxadiazol-3-yl}-1,3,5-triazine-2,4-diamine], the IC50 was determined as 4590 nM.

Source of the values: US8895733B2 (Novartis AG, priority 2010, dated 2014).
